Data published in US20170275261A1, “1,3,4-THIADIAZOLES HAVING A HERBICIDAL ACTIVITY, THEIR AGRONOMICAL COMPOSITIONS AND RELATIVE USE” (ISAGRO S.P.A., priority 2014, published 2017).

What was measured:
Format in all cases: in vivo
Details in all cases: dose 250 g/ha, fifteen days after treatment, damage vs control
[1] = system: Digitaria sanguinalis; experiment: Herbicidal activity in pre-emergence
Description: (§1) The herbicidal activity in pre-emergence of the compounds of the invention was evaluated according to the following operating procedures.
(§2) The plant species of interest (weeds or crops) were seeded in vases having an upper diameter of 10 cm, a height of 10 cm and containing sandy earth. 10 vases were used for each plant species.
(§3) Water was added to each vase in a suitable quantity for the germination of the seeds. The vases were then divided into two groups, each containing 5 vases for each weed or crop.
(§4) One day after seeding, the first group of vases was treated with a dispersion having the following composition:
(§5) Said dispersion was prepared by adding a compound of the present invention at the desired concentration to a hydroacetonic solution containing acetone at 20% by volume and Tween 20 at 0.5% by weight, with respect to the total weight of the dispersion.
(§6) The desired concentration of a compound of the present invention corresponds to the concentration necessary for allowing the application of an effective dose of said compound equal to 250 g/ha to the plant species of interest.
(§7) The second group was only treated with a hydroacetonic solution containing acetone at 20% by volume and Tween 20 at 0.5% by weight, and was used as a comparison (control).
(§8) All the vases were kept under observation in a conditioned environment under the following environmental conditions: • temperature: 24° C.; • relative humidity: 60%; • photo-period: 16 hours; • light intensity: 12,000 lux.
(§9) Every two days the vases were uniformly watered to ensure a sufficient humidity degree for a good growth of the plants.

[2] = system: Apera spica-venti; experiment: Herbicidal activity in pre-emergence
Description: as §1, §2, §3, §4, §5, §6, §7, §8, §9

[3] = system: Setaria viridis; experiment: Herbicidal activity in pre-emergence
Description: as §1, §2, §3, §4, §5, §6, §7, §8, §9

[4] = system: Alopecurus myosuroides; experiment: Herbicidal activity in pre-emergence
Description: as §1, §2, §3, §4, §5, §6, §7, §8, §9

[5] = system: Echinochloa crusgalli; experiment: Herbicidal activity in pre-emergence
Description: as §1, §2, §3, §4, §5, §6, §7, §8, §9

[6] = system: Eleusine indica; experiment: Herbicidal activity in pre-emergence
Description: as §1, §2, §3, §4, §5, §6, §7, §8, §9

[7] = system: Lolium rigidum; experiment: Herbicidal activity in pre-emergence
Description: as §1, §2, §3, §4, §5, §6, §7, §8, §9

[8] = system: Poa Annua; experiment: Herbicidal activity in pre-emergence
Description: as §1, §2, §3, §4, §5, §6, §7, §8, §9

[9] = system: Digitaria sanguinalis; experiment: Herbicidal activity in post-emergence
Description: (§10) The herbicidal activity in post-emergence of the compounds of the invention was evaluated according to the following operating procedures.
as §2, §3, §7, §8, §9

[10] = system: Apera spica-venti; experiment: Herbicidal activity in post-emergence
Description: as §10, §2, §3, §7, §8, §9

[11] = system: Setaria viridis; experiment: Herbicidal activity in post-emergence
Description: as §10, §2, §3, §7, §8, §9

[12] = system: Alopecurus myosuroides; experiment: Herbicidal activity in post-emergence
Description: as §10, §2, §3, §7, §8, §9

[13] = system: Echinochloa crusgalli; experiment: Herbicidal activity in post-emergence
Description: as §10, §2, §3, §7, §8, §9

[14] = system: Eleusine indica; experiment: Herbicidal activity in post-emergence
Description: as §10, §2, §3, §7, §8, §9

[15] = system: Lolium rigidum; experiment: Herbicidal activity in post-emergence
Description: as §10, §2, §3, §7, §8, §9

[16] = system: Poa Annua; experiment: Herbicidal activity in post-emergence
Description: as §10, §2, §3, §7, §8, §9

SMILES	Herbicidal activity in pre-emergence [1]	Herbicidal activity in pre-emergence [2]	Herbicidal activity in pre-emergence [3]	Herbicidal activity in pre-emergence [4]	Herbicidal activity in pre-emergence [5]	Herbicidal activity in pre-emergence [6]	Herbicidal activity in pre-emergence [7]	Herbicidal activity in pre-emergence [8]	Herbicidal activity in post-emergence [9]	Herbicidal activity in post-emergence [10]	Herbicidal activity in post-emergence [11]	Herbicidal activity in post-emergence [12]	Herbicidal activity in post-emergence [13]	Herbicidal activity in post-emergence [14]	Herbicidal activity in post-emergence [15]	Herbicidal activity in post-emergence [16]
O=S(=O)(c1nnc(C(F)(F)F)s1)c1c(Cl)cccc1Cl [CR1, 2-(2,6-dichlorophenylsulfonyl)-5-(trifluoromethyl)-1,3,4-thiadiazole, reference compound]	0 (0-10% of damage)	0 (0-10% of damage)	0 (0-10% of damage)	0 (0-10% of damage)	0 (0-10% of damage)	0 (0-10% of damage)	0 (0-10% of damage)	0 (0-10% of damage)	0 (0-10% of damage)	0 (0-10% of damage)	0 (0-10% of damage)	0 (0-10% of damage)	0 (0-10% of damage)	0 (0-10% of damage)	0 (0-10% of damage)	0 (0-10% of damage)
Cc1nnc([S+]([O-])Cc2c(Cl)cccc2Cl)s1 (stereo not shown) [Nr. 1, 2-[(2,6-dichlorobenzyl)-sulfinyl]-5-methyl-1,3,4-thiadiazole]	5 (91% of damage-death of the plant)	5 (91% of damage-death of the plant)	4 (71-90% of damage)	4 (71-90% of damage)	4 (71-90% of damage)	5 (91% of damage-death of the plant)	4 (71-90% of damage)	5 (91% of damage-death of the plant)	5 (91% of damage-death of the plant)	5 (91% of damage-death of the plant)	4 (71-90% of damage)	4 (71-90% of damage)	4 (71-90% of damage)	5 (91% of damage-death of the plant)	4 (71-90% of damage)	5 (91% of damage-death of the plant)
Cc1nnc([S+]([O-])Cc2c(C(F)(F)F)nn(C)c2OCC(F)(F)F)s1 (stereo not shown) [Nr. 9]	5 (91% of damage-death of the plant)	5 (91% of damage-death of the plant)	5 (91% of damage-death of the plant)	5 (91% of damage-death of the plant)	5 (91% of damage-death of the plant)	5 (91% of damage-death of the plant)	5 (91% of damage-death of the plant)	5 (91% of damage-death of the plant)	5 (91% of damage-death of the plant)	5 (91% of damage-death of the plant)	4 (71-90% of damage)	5 (91% of damage-death of the plant)	5 (91% of damage-death of the plant)	5 (91% of damage-death of the plant)	4 (71-90% of damage)	5 (91% of damage-death of the plant)
CCc1nnc([S+]([O-])Cc2c(C(F)(F)F)nn(C)c2OCC(F)(F)F)s1 (stereo not shown) [Nr. 121]	5 (91% of damage-death of the plant)	5 (91% of damage-death of the plant)	5 (91% of damage-death of the plant)	5 (91% of damage-death of the plant)	5 (91% of damage-death of the plant)	5 (91% of damage-death of the plant)	5 (91% of damage-death of the plant)	5 (91% of damage-death of the plant)	5 (91% of damage-death of the plant)	5 (91% of damage-death of the plant)	4 (71-90% of damage)	4 (71-90% of damage)	5 (91% of damage-death of the plant)	5 (91% of damage-death of the plant)	4 (71-90% of damage)	5 (91% of damage-death of the plant)
